Data taken from publication PMC11947619, “Molecular mechanism of Mad2 conformational conversion promoted by the Mad2‐interaction motif of Cdc20” (Protein Science : A Publication of the Protein Society, 2025).
Residues, ends and D or L forms follow the SMILES beside them.

Key:
O‐Mad2^∆C10 = target: T1, O‐Mad2^∆C10 (Homo sapiens, UniProt Q13257); test: NMR titration / HSQC: Cdc20^MIM with O-Mad2^∆C10 (trapped open state); assay type: binding; settings: 25°C; for binding to Mad2^∆C10: NMR titration / HSQC, two-fold molar excess of peptide, spectra within 15 minutes (Figure S6)
T1 construct: His6-DoubleStrep-TEV (N); made in house
Text: The cloning of human wild‐type Mad2 and the mutant Mad2^R133A by the USER® method (NEB) into the pRSFDuet‐1 vector (71341‐3, Sigma‐Aldrich) with a His6‐DoubleStrep‐TEV tag at its N‐terminus was described previously (Fischer et al., [2022]). For this study, Mad2 mutants were generated as follows. The Mad2^LL expression construct was generated from the wild‐type Mad2 expression vector (Fischer et al., [2022]) by replacing residues 109–117 (TAKDDSAPR) with GSG. Mad2^ΔC10 and Mad2^Δβ7/β8 were modified from wild‐type Mad2 expression construct by deleting residues 196–205 and 166–205, respectively. Mad2^LL/R133A was modified by substituting Ala for Arg133 from the Mad2^LL expression construct. Mad2^LL/ΔC10 was modified from Mad2^LL by deleting residues 196–205. Mad2^L13A/R133A was generated from the Mad2^R133A mutant. Site‐directed mutagenesis of Mad2 was completed using the QuikChangeTM Lightning Site‐Directed Mutagenesis Kit (Agilent) developed by Stratagene Inc. (La Jolla, CA).
All NMR data on Mad2 were acquired in a 5 mm tube at 25°C in 20 mM HEPES, pH 7.0, 100 mM NaCl, 1 mM TCEP, 5% D2O. Backbone assignment experiments and all spectra, unless otherwise denoted, were collected using an in‐house Bruker 800 MHz Avance III spectrometer, equipped with a triple resonance TCI CryoProbe. 2D spectra were acquired using BEST ^1H,^15N‐TROSY HSQC, with 16 scans and a recycle delay of 400 ms, giving an experimental time of 12 min per spectrum. A Bruker 950 MHz Avance III spectrometer (MRC Biomedical NMR Centre, Francis Crick Institute) was used for the residue conversion rate analysis and the characterization of Mad2 dimers. Most experiments, including all backbone experiments, were acquired with 100 μM samples; the residue‐specific conversion rate analysis and characterization of Mad2 dimers utilized 200 μM samples and 300 μM samples, respectively.
Mad2LL (grey), Mad2∆C10 (green) and Mad2LL/∆C10 (purple). […] 15N{1H}‐ heteronuclear NOE were measured at 298 K. Regions that are highly dynamic are highlighted in yellow. e. […]

O‐Mad2^WT = target: T2, O‐Mad2^WT (Homo sapiens, UniProt Q13257); test: NMR: conversion of monomeric wild-type O-Mad2^WT; assay type: biochemical; settings: O-Mad2^WT 300 μM, two-fold molar excess peptide, HSQC, 25°C
T2 construct: MD simulations on the full‐length O‐Mad2:C‐Mad2:Mad1^MIM complex; His6-DoubleStrep-TEV (N); made in house
Procedure: FIGURE 6 O‐Mad2 retains its dynamic and structural properties in the O‐Mad2:C‐Mad2 dimer. (a, c) HSQC spectra of 300 μM wild‐type O‐Mad2^WT (a, light blue) and O‐Mad2^WT:(C‐Mad2^WT:Mad1^MIM) (c, blue). The schematics show the conformation of Mad2 as indicated by the tryptophan side‐chain resonances and their oligomeric states as determined by SEC‐MALS (insets). The SEC peaks are labeled with their molecular masses (kDa), where the theoretical molecular masses for monomeric and dimeric Mad2 are 23.5 and 47.0 kDa, respectively. For the dimeric samples, only one of the monomers was isotopically labeled and observable by NMR. Distinct chemical shift differences were also observed for Gly50 in O‐Mad2 and C‐Mad2, and its resonances are marked in the spectra. Cdc20^MIM‐123‐152 was added at two‐fold molar excess to O‐Mad2^WT (a), and O‐Mad2^WT:(C‐Mad2^WT:Mad1^MIM) (c). (b, d) This generated C‐Mad2^WT‐Cdc20^MIM (b, brown), and (C‐Mad2^WT:Cdc20^MIM):(C‐Mad2^WT:Mad1^MIM) (d, yellow), respectively. Their spectra are overlaid with that of C‐Mad2^L13A/R133A:Cdc20^MIM (red) for comparison. (e) Cα RMSF were determined from MD simulations at 300 K for monomeric O‐Mad2 (blue line) and O‐Mad2 in a O‐Mad2:C‐Mad2:Mad1^MIM dimer (brown dotted line). […]
For wild‐type Mad2, the protein was expressed as O‐Mad2^WT using the conditions described above. […]

T1 sequence (Q13257 1-195): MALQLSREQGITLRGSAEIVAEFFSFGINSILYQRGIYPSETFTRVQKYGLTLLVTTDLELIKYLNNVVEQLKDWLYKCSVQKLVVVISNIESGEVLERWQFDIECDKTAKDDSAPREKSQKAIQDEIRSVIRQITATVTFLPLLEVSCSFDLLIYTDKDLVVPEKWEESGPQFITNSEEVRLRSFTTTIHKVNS
T2 sequence (Q13257 whole entry): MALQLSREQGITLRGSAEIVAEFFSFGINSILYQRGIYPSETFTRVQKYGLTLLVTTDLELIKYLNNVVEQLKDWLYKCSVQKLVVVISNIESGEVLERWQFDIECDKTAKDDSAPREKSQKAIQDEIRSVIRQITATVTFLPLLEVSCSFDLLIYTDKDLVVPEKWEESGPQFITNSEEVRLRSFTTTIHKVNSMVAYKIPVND

| binding to Mad2^∆C10 (O‐Mad2^∆C10) | O- to C-Mad2 conversion, in words (O‐Mad2^∆C10; O-Mad2^∆C10 100 μM, two-fold molar excess peptide, 24 h time course) | Compound | conversion of O-Mad2^WT, in words (O‐Mad2^WT) |
| --- | --- | --- | --- |
| No binding |  | CC[C@H](C)[C@H](NC(=O)[C@H](CCCCN)NC(=O)[C@H](C)NC(=O)[C@H](CCC(=O)O)NC(=O)[C@H](CCC(=O)O)NC(=O)[C@@H](NC(=O)[C@H](CC(=O)O)NC(=O)[C@@H](N)Cc1ccccc1)C(C)C)C(=O)N[C@@H](CC(C)C)C(=O)N[C@@H](CCCNC(=N)N)C(=O)N[C@@H](CC(C)C)C(=O)N[C@@H](CO)C(=O)NCC(=O)N[C@@H](CCCCN)C(=O)N1CCC[C@H]1C(=O)N[C@@H](CCC(N)=O)C(=O)N[C@@H](CC(N)=O)C(=O)N[C@@H](C)C(=O)N1CCC[C@H]1C(=O)N[C@@H](CCC(=O)O)C(=O)NCC(=O)N[C@@H](Cc1ccc(O)cc1)C(=O)N[C@@H](CCC(N)=O)C(=O)N[C@@H](CC(N)=O)C(=O)N[C@@H](CCCNC(=N)N)C(=O)N[C@@H](CC(C)C)C(=O)N[C@@H](CCCCN)C(=O)N[C@H](C(=O)N[C@@H](CC(C)C)C(=O)N[C@@H](Cc1ccc(O)cc1)C(=O)O)C(C)C [Cdc20^MIM‐123‐152] (H-FDVEEAKILRLSGKPQNAPEGYQNRLKVLY-OH; N-terminus and C-terminus assumed) | converted to C‐Mad2 upon binding Cdc20^MIM |
| No binding | eliminated | EHQKAWALNLNGFDVEEAKILRLSGKPQ [Cdc20^MIM‐111‐138, Cdc20^MIM peptide spanning Cdc20 residues 111–138] |  |
